Values quoted from earlier work as cited in patent US20110123642A1 (priority 2008, published 2011).

SMILES | pKa | pKa^1 | pKa^2 | pKa^3 | pKa^4
O=C([O-])CC[C@@H](C(=O)[O-])N(CC(=O)[O-])CC(=O)[O-].[Na+].[Na+].[Na+].[Na+] [GLDA, L-glutamic acid-N,N-diacetic acid, tetrasodium salt] | 9.4 | 9.4 | 5.0 | 3.5 | 2.6
O=C(O)CN(CC(=O)O)CC(=O)O [NTA, reference compound] | 9.7 | – | – | – | –
O=C(O)CN(CCN(CC(=O)O)CC(=O)O)CC(=O)O [EDTA, reference compound] | 10.2 | – | – | – | –
